Laboratory results taken from patent US9066965B1, “Purified limonin glucoside for prevention and treatment of chronic diseases” (The United States of America, as represented by the …, priority 2012, dated 2015).
Several values for one entry are separate records, joined by “and”; a condition that tells them apart may be missing. Identical values can stand only once.

Columns and labels:
[1] = system: gamma glutamyl transferase (GGT); assay: Plasma GGT activity (Integra 400); type: in vivo, human; conditions: 56 days
Protocol: CMP performed on serum samples at the chemistry laboratory of University of California Medical Center by using the Beckman Coulter DxC800. GGT and CKMB were determined in the EDTA plasma. GGT activity was determined by using Integra 400 Chemistry Analyzer, Roche Diagnostics. CKMB concentration was determined by using the Multiplex kits from Mesoscale Discovery (Gaithersburg, Md. 20877).
SAS PROC MIXED was used to fit the cross-over model (Littell R C, Milliken G A, Stroup W W, Wolfinger R D, Schabenberger O. SAS System for Mixed Models. Cay, N.C.: SAS Institute Inc.; 2006). Transformations were used when appropriate to stabilize the variances among the diets and periods. The fixed effects were order, diet, the interaction and the covariate; and the random effect was subjects within order. The test for order is a test for carry-over effect. […] Comparisons were made between the values at the end of placebo and LG treatments and using the baseline data as a covariate. Results are presented as means±SEM. Differences were considered statistically significant for P value<0.05.

[2] = Rules Based Medicine human multi-analyte panel (MAP 1.6), plasma; type: in vivo; parameters: Epidermal growth factor: unit not given here
Protocol: Plasma samples prepared from blood collected in EDTA-containing tubes were stored at −80° C. until tested. The samples were thawed at room temperature, vortexed, spun at 13,000×g for 5 minutes for clarification and 100 uL aliquots were removed for MAP analysis into a master microtiter plate. Using automated pipetting, an aliquot of each sample was introduced into one of the capture microsphere multiplexes of the Human MAP 1.6. This MAP comprised of 89 antigens that included markers for oxidative stress, inflammation, immune status, T2DM, CVD, blood clotting, cancer, liver and kidney functions. All plasma samples were tested in duplicate. The mixture of sample and capture microspheres were thoroughly mixed and incubated at room temperature for 1 hour. Multiplexed cocktails of biotinylated, reporter antibodies for each multiplex were then added robotically and after thorough mixing, were incubated for an additional hour at room temperature. Multiplexes were developed using an excess of streptavidin-phycoerythrin solution which was thoroughly mixed into each multiplex and incubated for 1 hour at room temperature. The volume of each multiplexed reaction was reduced by vacuum filtration and the volume increased by dilution into matrix buffer for analysis. Analysis was performed in a Luminex 100 instrument and the resulting data stream was interpreted using proprietary data analysis software developed at Rules-Based Medicine. For each multiplex, both calibrators and controls were included on each microtiter plate. 8-point calibrators were run in the first and last column of each plate and 3-level controls were included in duplicate. Testing results were determined first for the high, medium and low controls for each multiplex to ensure proper assay performance. Unknown values for each of the analytes localized in a specific multiplex were determined using 4 and 5 parameter, weighted and non-weighted curve fitting algorithms included in the data analysis package. The intra-sample coefficient of variance (CV) for all antigens with concentrations above the lowest detectable dose (LDD) was less than 20%, and was less than 10% for more than 50% of the antigens tested.
Results are presented as means±SEM.

[3] = Adverse effects and tolerability of the LG drink; type: in vivo, human
Text: A total of 11 adverse events were reported by 6 subjects for the entire duration of the study (data not shown). Some of these events such as volunteer hurting their back or hand were definitely unrelated to the drinks, while others like a weird taste, dry throat seem related to the drinks, still others such as mild cold or frequent urinating, or rash on chest may or may not be related to the drinks. […] Since the placebo was also the carrier of LG, all adverse events may be due to the placebo drinks.

[4] = End LG, 500 mg/d, 56 days, n = 10, mean ± SEM

CC1(C)O[C@H]2CC(=O)OC[C@]23[C@H]2CC[C@@](C)([C@@H](O[C@@H]4O[C@H](CO)[C@@H](O)[C@H](O)[C@H]4O)c4ccoc4)[C@@]4(O[C@@H]4C(=O)O)[C@]2(C)C(=O)C[C@@H]13 [LG, limonin glucoside]
GGT ([1]; EDTA plasma, End LG, 500 mg/d, n = 10, mean ± SEM): 25.2 ± 8.0 U/L | decrease of plasma activity of GGT ([1]; vs end of placebo treatment, 0.5 g/d, p=0.001): 33.8% and 33% | Adiponectin [2, 4]: 3.19 ± 0.70 µg/mL | Alpha-1 Antitrypsin [2, 4]: 2.19 ± 0.10 mg/mL | Alpha-2 Macroglobulin [2, 4]: 0.79 ± 0.06 mg/mL | Alpha-Fetoprotein [2, 4]: 2.35 ± 0.19 ng/mL | Apolipoprotein A1 [2, 4]: 0.30 ± 0.01 mg/mL | Apolipoprotein CIII [2, 4]: 111.60 ± 12.92 µg/mL | Apolipoprotein H [2, 4]: 257.10 ± 19.26 µg/mL | Apolipoprotein a [2, 4]: 110.78 ± 57.76 µg/mL | Beta-2 Microglobulin [2, 4]: 1.46 ± 0.14 µg/mL | Brain-Derived Neurotrophic Factor [2, 4]: 2.88 ± 0.71 ng/mL | C Reactive Protein [2, 4]: 1.77 ± 0.26 µg/mL | CD 40 [2, 4]: 0.76 ± 0.06 ng/mL | CD 40 Ligand [2, 4]: 0.74 ± 0.27 ng/mL | Carcinoembryonic Antigen [2, 4]: 1.49 ± 0.36 ng/mL | Creatine Kinase-MB [2, 4]: 0.30 ± 0.07 ng/mL | EN-RAGE [2, 4]: 3.45 ± 0.99 ng/mL | Eotaxin-1 [2, 4]: 71.37 ± 14.78 pg/mL | Epidermal growth factor [2, 4]: 251.67 ± 48.22 | Epithelial derived-neutrophil-activating protein [2, 4]: 1.68 ± 0.41 ng/mL | Factor VII [2, 4]: 548.70 ± 64.71 ng/mL | Ferritin [2, 4]: 137.76 ± 59.13 ng/mL | Fibrinogen [2, 4]: 4.81 ± 0.29 mg/mL | Fibroblast growth factor-basic [2, 4]: 102.81 ± 19.33 pg/mL | Glutathione S-Transferase [2, 4]: 0.56 ± 0.02 ng/mL | Granulocyte colony-stimulating factor [2, 4]: 5.63 ± 1.12 pg/mL | Growth hormone [2, 4]: 1.71 ± 0.79 ng/mL | Haptoglobin [2, 4]: 1.26 ± 0.18 mg/mL | ICAM-1 [2, 4]: 105.01 ± 13.81 ng/mL | Immunoglobulin A [2, 4]: 2.14 ± 0.54 mg/mL | Immunoglobulin E [2, 4]: 28.89 ± 6.20 ng/mL | Immunoglobulin M [2, 4]: 1.85 ± 0.23 mg/mL | Insulin [2, 4]: 2.94 ± 0.53 μIU/mL | Interleukin-1 beta [2, 4]: 0.50 ± 0.14 pg/mL | Interleukin-1 receptor antagonist [2, 4]: 105.05 ± 14.03 pg/mL | Interleukin-3 [2, 4]: 0.05 ± 0.01 ng/mL | Interleukin-4 [2, 4]: 62.87 ± 8.35 pg/mL | Interleukin-5 [2, 4]: 3.80 ± 0.77 pg/mL | Interleukin-7 [2, 4]: 51.27 ± 7.39 pg/mL | Interleukin-8 [2, 4]: 11.26 ± 1.25 pg/mL | Interleukin-10 [2, 4]: 10.92 ± 2.07 pg/mL | Interleukin-12p 70 [2, 4]: 59.91 ± 2.15 pg/mL | Interleukin-13 [2, 4]: 59.52 ± 6.77 pg/mL | Interleukin-15 [2, 4]: 0.45 ± 0.09 ng/mL | Interleukin-16 [2, 4]: 404.90 ± 32.28 pg/mL | Interleukin-18 [2, 4]: 237.45 ± 24.67 pg/mL | Leptin [2, 4]: 15.00 ± 4.12 ng/mL | Macrophage inflammatory protein-1α [2, 4]: 106.76 ± 12.39 pg/mL | Macrophage inflammatory protein-1β [2, 4]: 183.58 ± 36.53 pg/mL | Matrix metalloproteinase-2 [2, 4]: 2.20 ± 156.40 µg/mL | Monocyte chemotactic protein-1 [2, 4]: 164.84 ± 16.25 pg/mL | Monocyte derived chemokine [2, 4]: 426.10 ± 40.45 pg/mL | Myeloperoxidase [2, 4]: 147.83 ± 22.42 ng/mL | Myoglobin [2, 4]: 14.94 ± 2.39 ng/mL | Plasminogen activator inhibitor-1 [2, 4]: 69.86 ± 15.86 ng/mL | Pregnancy associated plasma protein A [2, 4]: 0.02 ± 0.00 mIU/mL | Prostatic Acid Phosphatase [2, 4]: 0.17 ± 0.02 ng/mL | Serum amyloid P-component [2, 4]: 16.61 ± 0.94 µg/mL | Serum glutamic oxaloacetic transaminase [2, 4]: 9.67 ± 1.64 µg/mL | Sex hormone binding globulin [2, 4]: 33.29 ± 5.40 nmol/L | Stem Cell Factor [2, 4]: 351.05 ± 50.76 pg/mL | T-cell specific protein, RANTES [2, 4]: 16.48 ± 3.62 ng/mL | Thrombopoietin [2, 4]: 1.40 ± 0.22 ng/mL | Thyroid Stimulating Hormone [2, 4]: 1.72 ± 0.30 μIU/mL | Thyroxine Binding Globulin [2, 4]: 46.51 ± 2.84 µg/mL | Tissue factor [2, 4]: 0.45 ± 0.03 ng/mL | Tissue inhibitor of metalloproteinases-1 [2, 4]: 87.97 ± 8.38 ng/mL | Tumor necrosis factor receptor-like 2 [2, 4]: 3.83 ± 0.25 ng/mL | Tumor necrosis factor α [2, 4]: 3.58 ± 0.68 pg/mL | Vascular cell adhesion molecule-1 [2, 4]: 508.80 ± 49.79 ng/mL | Vascular endothelial growth factor [2, 4]: 883.55 ± 268.15 pg/mL | Von Willebrand Factor [2, 4]: 30.03 ± 3.09 µg/mL | tumor necrosis factor α (p=0.085), matrix metalloproteinase-9 (p=0.118), serum amyloid P (p=0.188) with supplementation ([2]; not significant): trends for decrease | Matrix metalloproteinase-2 ([2]; second line so named (r60), End LG, 500 mg/d, 56 days, n = 10, mean ± SEM): 0.07601 ± 0.02246 µg/mL | effect on parameters of CBC, CMP and MAP 1.6 ([3]; 500 mg/d, 56 days): did not adversely affect | serious adverse effects ([3]; 500 mg/d, 56 days): did not have any serious adverse effects | tolerability ([3]; 500 mg/d, 56 days): well tolerated | adverse events reported while taking the drink ([3]; out of the 11 adverse events of the study, 7 on placebo drinks): 4
